Test results reported in patent US20180072739A1, “CO-CRYSTALS OF A BRUTON'S TYROSINE KINASE INHIBITOR” (Pharmacyclic LLC, priority 2015, published 2018).
Converted amounts (≈) assume the structure as drawn.

Test: physchem
Settings: water, 25 °C, thermodynamic from solid
Description: The suspension was equilibrated at 25° C. for 2 hours with aliquots sampled at 30, 60 and 120 min; the pH was measured at each time point. The suspension was then filtered through a glass fibre C filter. The filtrate was then diluted by an appropriate factor. Quantitation was by HPLC with reference to a standard solution of approximately 0.2 mg/mL in CH3CN:water. Different volumes of the standard, diluted and undiluted sample solutions were injected. […]

solubility at 30 min: ~1640 µg/mL (≈ 3.72 mM)
solubility at 60 min: ~1640 µg/mL (≈ 3.72 mM)
solubility at 120 min: ~1690 µg/mL (≈ 3.84 mM)
SMILES: C=CC(=O)N1CCC[C@@H](n2nc(-c3ccc(Oc4ccccc4)cc3)c3c(N)ncnc32)C1 [Compound 1, 1-((R)-3-(4-amino-3-(4-phenoxyphenyl)-1H-pyrazolo[3,4-d]pyrimidin-1-yl)piperidin-1-yl)prop-2-en-1-one]
